Source: article PMC5349767 (ACS chemical neuroscience, 2015)
Counter-ions that a name gives are not always drawn. Like-named read-outs stand apart in the source and are kept apart here.

Legend:
DAT [1] = biological target: DAT (Rattus norvegicus, UniProt P23977); experiment: Inhibition of [3H]dopamine uptake in rat caudate synaptosomes; assay type: biochemical; settings: for Fold decrease in DAT potency relative to comparator compound: 8 vs 7, 15 vs 9, 16 vs 7, 17 vs 10
DAT [2] = settings: read-out: IC50 as DAT reuptake inhibitor; 3,4-dichloro-α-PVP series; cited from earlier work
[3] = read-out: IC50, nM (SD), inhibition at DAT, 5 nM [3H]dopamine uptake, rat caudate synaptosomes, mean ± SD, n = 3

Sequence of DAT (Rattus norvegicus, UniProt P23977) (P23977 whole entry): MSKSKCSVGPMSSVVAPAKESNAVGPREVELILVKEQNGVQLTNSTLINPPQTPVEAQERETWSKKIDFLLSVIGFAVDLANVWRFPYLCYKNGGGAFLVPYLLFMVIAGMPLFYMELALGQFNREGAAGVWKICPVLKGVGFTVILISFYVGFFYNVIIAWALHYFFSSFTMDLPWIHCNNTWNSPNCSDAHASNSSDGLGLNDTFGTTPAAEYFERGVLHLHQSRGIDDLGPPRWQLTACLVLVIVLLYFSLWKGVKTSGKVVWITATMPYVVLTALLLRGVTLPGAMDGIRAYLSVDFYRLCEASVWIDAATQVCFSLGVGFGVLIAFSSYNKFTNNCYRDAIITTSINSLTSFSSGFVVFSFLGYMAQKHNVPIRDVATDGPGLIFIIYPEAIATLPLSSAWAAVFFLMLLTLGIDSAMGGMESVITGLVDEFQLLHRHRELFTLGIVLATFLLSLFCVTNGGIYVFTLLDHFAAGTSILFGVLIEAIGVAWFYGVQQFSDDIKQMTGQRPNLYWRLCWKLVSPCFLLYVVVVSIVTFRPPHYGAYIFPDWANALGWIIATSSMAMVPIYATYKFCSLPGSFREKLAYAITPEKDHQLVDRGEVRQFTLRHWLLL

Row | Structure (SMILES) | IC50 (DAT [1]) [nM] | IC50 (DAT [1]; [3]) [nM] | other results
1 | O=C(c1ccccc1)C(C1CCCC1)N1CCCC1 (centres unmarked) [compound 13, 2-Cyclopentyl-1-phenyl-2-(pyrrolidin-1-yl)ethanone Hydrochloride] | 17.1 | – | –
2 | CC(C)C(C(=O)c1ccccc1)N1CCCC1 (centres unmarked) [compound 11] | – | 92.3 | –
3 | O=C(c1ccccc1)C(C1CCCCC1)N1CCCC1 (centres unmarked) [compound 14, 2-Cyclohexyl-1-phenyl-2-(pyrrolidin-1-yl)ethanone Hydrochloride] | 8.3 | – | –
4 | CCCC(C(=O)c1ccc(Cl)c(Cl)c1)N1CCCC1 (stereo not drawn) [3,4-dichloro-α-PVP] | – | – | IC50 (DAT [2]): 43 nM
5 | CCCC(C(=O)c1ccccc1)N1CCCCC1 (centres unmarked) [compound 16, 1-Phenyl-2-(piperidin-1-yl)pentan-1-one Hydrochloride] | 128 | – | –
6 | O=C(O)C(=O)O.O=C1c2ccccc2CCC1N1CCCC1 (centres unmarked) [compound 17, 2-(Pyrrolidin-1-yl)-3,4-dihydronaphthalen-1(2H)-one Oxalate] | 12900 | – | Fold decrease in DAT potency relative to comparator compound (DAT [1]): 200 fold
7 | CCCCC(C(=O)c1ccccc1)N1CCCC1 (centres unmarked) [compound 12, 1-Phenyl-2-(pyrrolidin-1-yl)hexanone Oxalate] | – | 11.6 | –
8 | O=C(CN1CCCC1)c1ccccc1.O=C(O)C(=O)O [compound 8, 2-(1-Pyrolidinyl)-1-acetophenone Oxalate] | – | 3250 | Fold decrease in DAT potency relative to comparator compound (DAT [1]): 185 fold
9 | CCCC(C(=O)c1ccccc1)N1CCCC1 (stereo not drawn) [compound 7, α-Pyrrolidinovalerophenone, reference compound] | – | 17.5 | –
